Measured values from patent publication US20240217977A1, “DIAZEPANONE-FUSED PYRIMIDINE COMPOUNDS, COMPOSITIONS AND MEDICINAL APPLICATIONS THEREOF” (Blueprint Medicines Corporation, priority 2021, published 2024).

Assays:
Format in all cases: cell-based
A431 cells = assay: Cellular proliferation (Alamar Blue) assay, A431 cells; conditions: Homo sapiens, A-431, 72 hr incubation
Protocol: (§1) Example 2: Cellular Proliferation (Alamar Blue) Assays
(§2) • 1. EGFR(D770_N771insSVD) expressing Ba/F3 stable cell line • 2. EGFR (A767_dupASV) expressing Ba/F3 stable cell line • 3. A431 cells • 4. EGFR (H773insNPH) expressing Ba/F3 stable cell line • 5. HER2 (A775_G775insYVMA) expressing Ba/F3 stable cell line
(§3) • 1. Seed cells at 5000 for A431 and 15,000 cells for Ba/F3 in 100 μL/well in complete media (for A431: DMEM with 10% FBS and for Ba/F3 cells: RPMI with 10% FBS) in • 96-well tissue culture plate. Leave outer wells without cells for background measurements. Incubate at 37 degree Celsius in 5% C02 humidified incubator for 16-18 hours. • 2. Add 0.025 ml of 5× concentration compound dilution or DMSO control. Final compound concentration range is 10-0.0005 μM prepared in 3-fold serial dilutions. Incubate for 72 hr at 37 degree Celsius in 5% CO2 humidified incubator. • 3. Add 0.0125 ml Alamar Blue™ reagent to each well with multi-channel pipette and tap gently on each side of the plate to mix. Incubate for 3 hours at 37 degree Celsius in 5% CO2 humidified incubator. • 4. Read plates on fluorescence reader (Tecan Spark Control, Device: Spark, Serial #: 1801006040) at 540 nm excitation, 590 nm emission wavelength. • 5. Data analysis was performed using XLfit 5.5.0.5.

[1] = biological target: EGFR (A767_dupASV) expressing Ba/F3 stable cell line (Homo sapiens, UniProt P00533, DUP767-769, cells depend on it); assay: Cellular proliferation (Alamar Blue) assay, EGFR (A767_dupASV) Ba/F3; conditions: 72 hr incubation, read-out: A767 IC50
Protocol: as §1, §2, §3

[2] = biological target: EGFR(D770_N771insSVD) expressing Ba/F3 stable cell line (Homo sapiens, UniProt P00533, DUP768-770, cells depend on it); assay: Cellular proliferation (Alamar Blue) assay, EGFR(D770_N771insSVD) Ba/F3; conditions: 72 hr incubation, read-out: D770 IC50
Protocol: as §1, §2, §3

Sequence of EGFR (A767_dupASV) expressing Ba/F3 stable cell line (P00533 with tags, fused parts or gaps DUP767-769): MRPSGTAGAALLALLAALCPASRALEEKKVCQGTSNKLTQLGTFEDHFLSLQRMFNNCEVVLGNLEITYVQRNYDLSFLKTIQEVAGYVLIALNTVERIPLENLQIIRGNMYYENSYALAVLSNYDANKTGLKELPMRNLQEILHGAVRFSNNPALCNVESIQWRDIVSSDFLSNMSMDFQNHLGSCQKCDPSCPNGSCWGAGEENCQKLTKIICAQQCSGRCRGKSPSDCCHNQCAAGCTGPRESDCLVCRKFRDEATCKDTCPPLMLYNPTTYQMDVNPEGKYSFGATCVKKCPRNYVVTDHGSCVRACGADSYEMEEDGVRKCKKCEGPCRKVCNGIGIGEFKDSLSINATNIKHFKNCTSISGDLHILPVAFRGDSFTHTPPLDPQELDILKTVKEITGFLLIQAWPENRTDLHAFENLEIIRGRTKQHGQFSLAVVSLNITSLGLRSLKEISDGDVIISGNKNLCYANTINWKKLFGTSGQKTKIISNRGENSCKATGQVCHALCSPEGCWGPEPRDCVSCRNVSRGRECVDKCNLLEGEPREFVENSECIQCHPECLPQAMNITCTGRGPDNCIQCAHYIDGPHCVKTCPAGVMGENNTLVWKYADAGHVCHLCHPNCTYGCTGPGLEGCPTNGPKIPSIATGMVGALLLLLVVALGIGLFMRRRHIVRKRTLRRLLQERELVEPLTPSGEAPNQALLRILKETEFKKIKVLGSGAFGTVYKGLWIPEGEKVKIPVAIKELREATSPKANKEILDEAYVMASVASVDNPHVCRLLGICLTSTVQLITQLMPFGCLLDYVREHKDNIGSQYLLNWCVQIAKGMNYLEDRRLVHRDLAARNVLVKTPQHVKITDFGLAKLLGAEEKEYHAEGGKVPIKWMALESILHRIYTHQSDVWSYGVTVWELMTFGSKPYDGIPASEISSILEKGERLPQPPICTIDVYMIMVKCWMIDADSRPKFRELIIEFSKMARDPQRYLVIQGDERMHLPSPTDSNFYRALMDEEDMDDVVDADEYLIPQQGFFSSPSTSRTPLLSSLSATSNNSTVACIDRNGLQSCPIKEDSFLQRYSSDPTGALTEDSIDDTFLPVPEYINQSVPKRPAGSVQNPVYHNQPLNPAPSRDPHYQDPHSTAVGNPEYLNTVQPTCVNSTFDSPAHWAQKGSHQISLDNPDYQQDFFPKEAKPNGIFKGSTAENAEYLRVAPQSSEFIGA
Sequence of EGFR(D770_N771insSVD) expressing Ba/F3 stable cell line (P00533 with tags, fused parts or gaps DUP768-770): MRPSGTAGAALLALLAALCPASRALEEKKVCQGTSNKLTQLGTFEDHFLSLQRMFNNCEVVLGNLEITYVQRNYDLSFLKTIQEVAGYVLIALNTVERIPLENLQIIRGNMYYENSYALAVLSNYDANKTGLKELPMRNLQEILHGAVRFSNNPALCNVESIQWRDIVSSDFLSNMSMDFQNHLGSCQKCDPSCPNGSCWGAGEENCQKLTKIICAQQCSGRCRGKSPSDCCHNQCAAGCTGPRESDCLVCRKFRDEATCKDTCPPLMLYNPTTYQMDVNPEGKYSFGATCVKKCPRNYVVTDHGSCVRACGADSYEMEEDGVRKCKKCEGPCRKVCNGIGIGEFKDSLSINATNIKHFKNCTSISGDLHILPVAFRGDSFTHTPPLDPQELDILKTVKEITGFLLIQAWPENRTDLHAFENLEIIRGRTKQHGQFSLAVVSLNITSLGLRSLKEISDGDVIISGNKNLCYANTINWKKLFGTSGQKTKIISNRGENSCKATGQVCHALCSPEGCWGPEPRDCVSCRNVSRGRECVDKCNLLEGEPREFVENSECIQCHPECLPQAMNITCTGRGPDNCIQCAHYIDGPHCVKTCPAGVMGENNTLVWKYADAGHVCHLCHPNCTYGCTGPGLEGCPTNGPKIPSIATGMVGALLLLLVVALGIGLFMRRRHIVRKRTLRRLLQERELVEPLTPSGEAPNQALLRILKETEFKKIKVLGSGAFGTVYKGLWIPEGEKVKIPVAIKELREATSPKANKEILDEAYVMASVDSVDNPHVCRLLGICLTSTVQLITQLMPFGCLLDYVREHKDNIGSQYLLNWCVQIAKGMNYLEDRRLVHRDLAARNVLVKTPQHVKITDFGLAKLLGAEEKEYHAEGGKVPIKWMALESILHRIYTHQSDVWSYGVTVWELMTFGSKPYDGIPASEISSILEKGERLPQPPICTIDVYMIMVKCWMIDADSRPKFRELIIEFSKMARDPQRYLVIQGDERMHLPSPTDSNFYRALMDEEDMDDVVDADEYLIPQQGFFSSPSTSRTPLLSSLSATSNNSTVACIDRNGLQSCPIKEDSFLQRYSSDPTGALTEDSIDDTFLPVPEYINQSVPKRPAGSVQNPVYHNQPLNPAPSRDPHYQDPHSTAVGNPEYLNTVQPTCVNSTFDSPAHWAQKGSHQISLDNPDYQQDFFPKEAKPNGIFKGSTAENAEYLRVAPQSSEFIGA

Row | IC50 (A431 cells) | GI50 [1] | GI50 [2] | SMILES
1 | 179 nM | 911 nM | 933 nM | Cc1cc(Nc2ncc3c(n2)N(c2cccc(NC(=O)/C=C/CN(C)C)c2)C(=O)N(Cc2ccccc2)CC3)ccc1N1CCN(C)CC1 [Compound 23, (E)-N-(3-(7-benzyl-2-((3-methyl-4-(4-methylpiperazin-1-yl)phenyl)amino)-8-oxo-5,6,7,8-tetrahydro-9H-pyrimido[4,5-d][1,3]diazepin-9-yl)phenyl)-4-(dimethylamino)but-2-enamide]
2 | > 10000 nM | 388 nM | 492 nM | C=CC(=O)Nc1cccc(N2C(=O)N(Cc3ccccc3)CCc3cnc(NC4CCOCC4)nc32)c1 [Compound 25, N-(3-(7-benzyl-8-oxo-2-((tetrahydro-2H-pyran-4-yl)amino)-5,6,7,8-tetrahydro-9H-pyrimido[4,5-d][1,3]diazepin-9-yl)phenyl)acrylamide]
3 | 20 nM | 318 nM | 325 nM | C=CC(=O)Nc1cccc(N2C(=O)N(c3ccccc3)CCc3cnc(Nc4ccc(C5CCN(C)CC5)cc4)nc32)c1 [Compound 36, N-(3-(2-((4-(1-methylpiperidin-4-yl)phenyl)amino)-8-oxo-7-phenyl-5,6,7,8-tetrahydro-9H-pyrimido[4,5-d][1,3]diazepin-9-yl)phenyl)acrylamide]
4 | 370 nM | 9010 nM | 989 nM | CN(C)C/C=C/C(=O)Nc1cccc(N2C(=O)N(c3ccccc3)CCc3cnc(Nc4ccc(C5CCN(C)CC5)cc4)nc32)c1 [Compound 38, (E)-4-(dimethylamino)-N-(3-(2-((4-(1-methylpiperidin-4-yl)phenyl)amino)-8-oxo-7-phenyl-5,6,7,8-tetrahydro-9H-pyrimido[4,5-d][1,3]diazepin-9-yl)phenyl)but-2-enamide]
5 | > 10000 nM | 606 nM | 611 nM | C=CC(=O)Nc1cccc(N2C(=O)N(Cc3ccccc3)CCc3cnc(NC4COC4)nc32)c1 [Compound 27, N-(3-(7-benzyl-2-(oxetan-3-ylamino)-8-oxo-5,6,7,8-tetrahydro-9H-pyrimido[4,5-d][1,3]diazepin-9-yl)phenyl)acrylamide]
6 | 225 nM | 2790 nM | 3480 nM | Cc1cc(Nc2ncc3c(n2)N(c2cccc(NC(=O)/C=C/CN(C)C)c2)C(=O)N(c2ccccc2)CC3)ccc1N1CCN(C)CC1 [Compound 34, (E)-4-(dimethylamino)-N-(3-(2-((3-methyl-4-(4-methylpiperazin-1-yl)phenyl)amino)-8-oxo-7-phenyl-5,6,7,8-tetrahydro-9H-pyrimido[4,5-d][1,3]diazepin-9-yl)phenyl)but-2-enamide]
7 | 114 nM | 329 nM | 940 nM | CN(C)C/C=C/C(=O)Nc1cccc(N2C(=O)N(Cc3ccccc3)CCc3cnc(Nc4cn(C5CCN(C)CC5)nc4Cl)nc32)c1 [Compound 8, (E)-N-(3-(7-benzyl-2-((3-chloro-1-(1-methylpiperidin-4-yl)-1H-pyrazol-4-yl)amino)-8-oxo-5,6,7,8-tetrahydro-9H-pyrimido[4,5-d][1,3]diazepin-9-yl)phenyl)-4-(dimethylamino)but-2-enamide]
8 | 1220 nM | > 10000 nM | > 10000 nM | C=CC(=O)Nc1cccc(Nc2ncc3c(n2)N(C)C(=O)N(c2ccccc2)CC3)c1 [Compound 45, N-(3-((9-methyl-8-oxo-7-phenyl-6,7,8,9-tetrahydro-5H-pyrimido[4,5-d][1,3]diazepin-2-yl)amino)phenyl)acrylamide]
9 | > 10000 nM | > 10000 nM | > 10000 nM | C=CC(=O)Nc1cccc(N2C(=O)N(Cc3ccccc3)CCc3cnc(Nc4cccnc4)nc32)c1 [Compound 12, N-(3-(7-benzyl-8-oxo-2-(pyridin-3-ylamino)-5,6,7,8-tetrahydro-9H-pyrimido[4,5-d][1,3]diazepin-9-yl)phenyl)acrylamide]
